Tests used:
[1] = target: NACHT, LRR and PYD domains-containing protein 3 (Mus musculus) (UniProt Q8R4B8); assay: Inhibition of NLRP3 inflammasome activation in mouse […] cells assessed as reduction in LPS/ATP-induced IL-1 beta release at 10 uM pretreated with LPS for 4.5 hrs followed by compound addition for 30 mins prior to ATP addition and measured after 30 mins by ELISA relative to control; type: cell-based; conditions: J774.A1, time 5.5 hrs
[2] = target: NACHT, LRR and PYD domains-containing protein 3 (Mus musculus) (UniProt Q8R4B8); assay: Inhibition of NLRP3 inflammasome activation in mouse […] cells assessed as reduction in LPS/ATP-induced IL-1 beta release at 1 uM pretreated with LPS for 4.5 hrs followed by compound addition for 30 mins prior to ATP addition and measured after 30 mins by ELISA relative to control; type: cell-based; conditions: J774.A1, time 5.5 hrs
[3] = target: NACHT, LRR and PYD domains-containing protein 3 (Mus musculus, UniProt Q8R4B8); assay: Inhibition of NLRP3 inflammasome activation in mouse […] cells assessed as reduction in LPS/ATP-induced IL-1 beta release pretreated with LPS for 4.5 hrs followed by compound addition for 30 mins prior to ATP addition and measured after 30 mins by ELISA; type: cell-based, J774.A1
[4] = Stability in rat plasma incubated measured upto 48 hrs by HPLC method; type: ADME, cell-free
[5] = Cytotoxicity against mouse J774.A1 cells; type: toxicity, cell-based
[6] = Stability in rat liver homogenate incubated measured upto 48 hrs by HPLC method; type: ADME, tissue-based; conditions: tissue homogenate
J774.A1 = assay: Cytotoxicity against mouse J774.A1 cells at 50 uM; type: toxicity, cell-based; conditions: j774.a1, 5.5 h

Chain of NACHT, LRR and PYD domains-containing protein 3 (Mus musculus) (Q8R4B8 whole entry, the tested form may be a part): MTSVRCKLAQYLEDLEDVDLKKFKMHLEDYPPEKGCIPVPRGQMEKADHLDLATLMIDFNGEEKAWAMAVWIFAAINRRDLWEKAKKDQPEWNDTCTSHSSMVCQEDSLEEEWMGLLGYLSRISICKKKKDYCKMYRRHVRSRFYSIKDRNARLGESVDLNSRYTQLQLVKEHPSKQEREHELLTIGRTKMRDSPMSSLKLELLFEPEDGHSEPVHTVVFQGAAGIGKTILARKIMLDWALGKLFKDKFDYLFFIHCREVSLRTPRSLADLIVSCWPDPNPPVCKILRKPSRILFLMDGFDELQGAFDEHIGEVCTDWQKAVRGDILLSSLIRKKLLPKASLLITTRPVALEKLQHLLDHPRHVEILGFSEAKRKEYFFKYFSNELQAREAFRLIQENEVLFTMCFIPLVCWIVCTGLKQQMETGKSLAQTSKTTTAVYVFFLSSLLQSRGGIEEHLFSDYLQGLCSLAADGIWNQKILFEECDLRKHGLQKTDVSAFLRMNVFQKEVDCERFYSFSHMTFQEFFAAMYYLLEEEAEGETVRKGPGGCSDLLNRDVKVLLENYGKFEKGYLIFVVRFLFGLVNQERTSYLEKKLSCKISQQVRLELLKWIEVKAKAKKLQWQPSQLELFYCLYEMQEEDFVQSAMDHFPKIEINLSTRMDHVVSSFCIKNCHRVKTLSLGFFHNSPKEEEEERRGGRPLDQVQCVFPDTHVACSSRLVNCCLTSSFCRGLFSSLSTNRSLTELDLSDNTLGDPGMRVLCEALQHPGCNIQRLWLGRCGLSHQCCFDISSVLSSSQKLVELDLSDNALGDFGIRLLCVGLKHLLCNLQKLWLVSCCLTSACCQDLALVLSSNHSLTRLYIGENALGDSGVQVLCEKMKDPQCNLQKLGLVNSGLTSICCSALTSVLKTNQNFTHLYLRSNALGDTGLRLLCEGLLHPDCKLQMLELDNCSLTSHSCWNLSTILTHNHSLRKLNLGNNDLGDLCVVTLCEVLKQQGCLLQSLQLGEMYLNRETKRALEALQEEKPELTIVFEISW
Chain of NACHT, LRR and PYD domains-containing protein 3 (Q8R4B8 whole entry, the tested form may be a part): as above

| Structure (SMILES) | inhibition [1] | inhibition [2] | also measured |
| --- | --- | --- | --- |
| CCS(=O)(=O)Nc1ccc(-c2ccccc2N(Cc2cc(Cl)ccc2OCCOC)C(=O)Cc2ccsc2)cc1 | 42.5% | 27.5% | – |
| COCCOc1ccc(Cl)cc1CN(C(=O)Cc1ccsc1)c1ccccc1-c1ccc(NC(=O)[C@@H]2CCC(=O)N2)cc1 | 84.5% | 54.1% | IC50 [3]: 860 nM |
| CCC(=O)Nc1ccc(-c2ccccc2N(Cc2cc(F)ccc2OCC(C)(F)F)C(=O)Cc2ccsc2)cc1 | 74.8% | 27.8% | – |
| CCNC(=O)Nc1ccc(-c2ccccc2N(Cc2cc(Cl)ccc2OCCOC)C(=O)Cc2ccsc2)cc1 | 84.4% | 56.9% | – |
| CCS(=O)(=O)Nc1ccc(-c2ccccc2N(Cc2cc(Cl)ccc2OCCOC)C(=O)c2ccc(F)cc2)cc1 | 68.2% | 55.4% | – |
| CCC(=O)Nc1ccc(-c2ccccc2N(Cc2cc(Cl)ccc2OCCOC)C(=O)c2ccc(F)cc2)cc1 | – | – | IC50 [3]: 340 nM; Stability [4]: Stable; IC50 [5]: 50000 nM; Stability [6]: Stable |
| CCCCS(=O)(=O)Nc1ccc(-c2ccccc2N(Cc2cc(Cl)ccc2OCCOC)C(=O)Cc2ccsc2)cc1 | 73.7% | 51.5% | – |
| CCC(=O)Nc1ccc(-c2ccccc2N(Cc2cc(Cl)ccc2OCCOC)C(=O)Cc2ccc(F)cc2)cc1 | 93.5% | 76.7% | IC50 [3]: 650 nM |
| COCCOc1ccc(Cl)cc1CN(C(=O)Cc1ccsc1)c1ccccc1-c1ccc(NC(=O)/C=C/c2ccccc2)cc1 | 36.7% | 11.9% | – |
| CCCS(=O)(=O)Nc1ccc(-c2ccccc2N(Cc2cc(Cl)ccc2OCCOC)C(=O)Cc2ccsc2)cc1 | 61.1% | 31.4% | – |
| CC(C)(O)c1coc(S(=O)(=O)NC(=O)Nc2c3c(cc4c2CCC4)CCC3)c1 | – | – | IC50 [3]: 15 nM |
| CCC(=O)Nc1ccc(-c2ccccc2N(Cc2cc(Cl)ccc2OCC(C)(F)F)C(=O)Cc2ccsc2)cc1 | 89.9% | 70.1% | IC50 [3]: 550 nM |
| COCCOc1ccc(Cl)cc1CN(C(=O)Cc1ccsc1)c1ccccc1-c1ccc(NC(=O)CBr)cc1 | 90.5% | 73% | IC50 [3]: 310 nM; Activity (J774.A1): > 97% |
| COCCOc1ccc(Cl)cc1CN(C(=O)Cc1ccsc1)c1ccccc1-c1ccc(NC(C)=O)cc1 | 33.9% | 1.56% | – |
| CCC(=O)Nc1ccc(-c2ccccc2N(Cc2cc(F)ccc2OCCOC)C(=O)Cc2ccsc2)cc1 | 83.8% | 42.7% | – |
| C#CCCCC(=O)Nc1ccc(-c2ccccc2N(Cc2cc(Cl)ccc2OCCOC)C(=O)Cc2ccsc2)cc1 | 49.6% | -0.88% | – |
| CCCCCC(=O)Nc1ccc(-c2ccccc2N(Cc2cc(Cl)ccc2OCCOC)C(=O)Cc2ccsc2)cc1 | 81.8% | 67.5% | IC50 [3]: 590 nM |

| Structure (SMILES) | inhibition [1] | inhibition [2] | also measured |
| --- | --- | --- | --- |
| CCC(=O)Nc1ccc(-c2ccccc2N(Cc2cc(Cl)ccc2OCCOC)C(=O)c2ccc(F)c(F)c2)cc1 | 27.7% | 36.1% | – |
| COCCOc1ccc(Cl)cc1CN(C(=O)Cc1ccsc1)c1ccccc1-c1ccc(NC(=O)C2CCCCC2)cc1 | 39.5% | -2.37% | – |
| CCCS(=O)(=O)Nc1ccc(-c2ccccc2N(Cc2cc(Cl)ccc2OCCOC)C(=O)c2ccc(F)cc2)cc1 | 67.6% | 58.9% | – |
| CCCC(CCC)C(=O)Nc1ccc(-c2ccccc2N(Cc2cc(Cl)ccc2OCCOC)C(=O)Cc2ccsc2)cc1 | 58.1% | 28.6% | – |
| COCCOc1ccc(Cl)cc1CN(C(=O)Cc1ccsc1)c1ccccc1-c1ccc(NC(=O)C(C)C)cc1 | 85.4% | 11.1% | – |
| CCCCCC(=O)Nc1ccc(-c2ccccc2N(Cc2cc(Cl)ccc2OCCOC)C(=O)c2ccc(F)cc2)cc1 | 45.4% | 7.12% | – |
| COCCOc1ccc(Cl)cc1CN(C(=O)Cc1ccsc1)c1ccccc1-c1ccc(NC(=O)OCc2ccccc2)cc1 | 54.4% | 10.6% | – |
| CCC(=O)Nc1ccc(-c2ccccc2N(Cc2cc(Cl)ccc2OCCOC)C(=O)c2c(F)c(F)c(F)c(F)c2F)cc1 | 23.6% | 39.7% | – |
| CCCC(=O)Nc1ccc(-c2ccccc2N(Cc2cc(Cl)ccc2OCCOC)C(=O)Cc2ccsc2)cc1 | 68.2% | 53.9% | IC50 [3]: 1030 nM |
| CCC(=O)Nc1ccc(-c2ccccc2N(Cc2ccc(C(F)(F)F)cc2)C(=O)c2ccc(F)cc2)cc1 | 82.1% | 49.7% | – |
| CCC(=O)Nc1ccc(-c2ccccc2N(Cc2ccc(F)cc2)C(=O)c2ccc(F)cc2)cc1 | 39.6% | 40.5% | – |
| CCNC(=S)Nc1ccc(-c2ccccc2N(Cc2cc(Cl)ccc2OCCOC)C(=O)Cc2ccsc2)cc1 | 78.4% | 29.2% | – |
| C=CC(=O)Nc1ccc(-c2ccccc2N(Cc2cc(Cl)ccc2OCCOC)C(=O)Cc2ccsc2)cc1 | 72.1% | 24.5% | – |
| CCC(=O)Nc1ccc(-c2ccccc2N(Cc2cc(Cl)ccc2OCCOC)C(=O)Cc2ccsc2)cc1 | 92.5% | 72.3% | IC50 [3]: 850 nM |
| CCC(=O)Nc1ccc(-c2ccccc2N(Cc2cc(Cl)ccc2OCCOC)C(=O)c2cc(F)c(F)c(F)c2)cc1 | 77.4% | 52.5% | – |
| COCCOc1ccc(Cl)cc1CN(C(=O)Cc1ccsc1)c1ccccc1-c1ccc(NC(=O)Cc2ccccc2)cc1 | 84.3% | 44.5% | – |
| COCCOc1ccc(Cl)cc1CN(C(=O)Cc1ccsc1)c1ccccc1-c1ccc(NC(=O)C2CC2)cc1 | 63.9% | 27.8% | – |

Reference: ChEMBL document CHEMBL6127080, “Design, synthesis and biological evaluation of novel diphenylamine analogues as NLRP3 inflammasome inhibitors” (Bioorg Med Chem, 2024)
